In paper PMC8016788 (Clinical Pharmacokinetics, 2021):
Like-named read-outs stand apart in the source and are kept apart here.

Tests used:
[1] = 10 mg
clinical = settings: human, plasma, oral, 10 mg
[2] = tested on: patients with non-diabetic kidney disease; settings: primary result of the DIAMOND trial; cited from earlier work
[3] = patients with type 2 diabetes and chronic kidney disease; model of van der Walt et al.; cited from earlier work

- Predicted median AUC0–inf ([1]; participants of 50 kg with mGFR 50 mL/min/1.73 m^2): 1100.3 (1016.1–1204.1) ng h/mL
- Predicted median AUC0–inf ([1]; participants of 70 kg with mGFR 15 mL/min/1.73 m^2): 1566.1 (1348.4–1855.4) ng h/mL
- Predicted median AUC0–inf ([1]; participants of 70 kg with mGFR 90 mL/min/1.73 m^2): 539.2 (483.5–600.4) ng h/mL
- Predicted median AUC0–inf ([1]; participants of 150 kg with mGFR 50 mL/min/1.73 m^2): 483.0 (445.5–527.8) ng h/mL
- AUC(0-inf) (clinical): 741 ng·h/mL
- Vd/F (clinical): 44.9 L
Compound: CCOc1ccc(Cc2cc([C@@H]3O[C@H](CO)[C@@H](O)[C@H](O)[C@H]3O)ccc2Cl)cc1 [dapagliflozin]
- Effect on proteinuria in the DIAMOND trial [2]: did not decrease proteinuria
- Apparent clearance [3]: approximately 10.5 L/h
